For orientation: Ki means the dissociation constant of the complex between target and ligand, obtained from inhibition or displacement.

Like-named read-outs stand apart in the source and are kept apart here. Numbered stars: 1 amine (or outer) side, 2 acyl side, 3 side chain; on linkers, the order of the positions; unused ones are H or OH. Square brackets hold non-standard residues; d marks the D form. Side chains are listed from the residue outwards. Peptide text beside a SMILES is read from it. * marks the point of attachment. DOTA(Lu)NH(CH2)6NHCOCH2 = O=C(CN1CCN2CCN3CCN(CC1)CC(=O)[O][Lu]([O]C(=O)C2)[O]C(=O)C3)NCCCCCCNC(=O)C*; X10 = O=C(CN1CCN2CCN3CCN(CC1)CC(=O)[O][Lu]([O]C(=O)C2)[O]C(=O)C3)NCC12CCC(C(=O)*)(CC1)CC2; DOTA(Lu) = O=C1CN2CCN3CCN(CC(=O)*)CCN(CC2)CC(=O)[O][Lu]([O]1)[O]C(=O)C3; Ala(piperidin-4-yl) = O=C([C@H](CC1CCN([*:3])CC1)N[*:1])[*:2]; DOTA = O=C(O)CN1CCN(CC(=O)O)CCN(CC(=O)*)CCN(CC(=O)O)CC1; dTrp(βS-Me) = C[C@@H](c1c[nH]c2ccccc12)[C@@H](N)C(=O)O; N(6-aminohexyl)Gly = O=C(CN(CCCCCCN[*:3])[*:1])[*:2]; X19 = O=C([C@H](Cc1c[nH]c2ccncc12)N[*:1])[*:2]; X8 = O=C([C@@H](Cc1n[nH]c2ccccc12)N[*:1])[*:2]; X4 = C[C@@H](c1ccccc1)[C@H](N[*:1])C(=O)[*:2]; Phe(3R-Me) = C[C@H](c1ccccc1)[C@H](N)C(=O)O; X25 = O=C([C@H](CC1CNC1)N[*:1])[*:2]; Ethylenediamine = C(CN[*:2])N[*:1]; Hyp = O=C(O)[C@@H]1C[C@@H](O)CN1; 3Pal = N[C@@H](Cc1cccnc1)C(=O)O; 4Pal = N[C@@H](Cc1ccncc1)C(=O)O; dPhg = N[C@@H](C(=O)O)c1ccccc1; NMehCys = CN[C@@H](CCS)C(=O)O; NMeK = CN[C@@H](CCCCN)C(=O)O; Phg = N[C@H](C(=O)O)c1ccccc1; CO = O=C([*:1])[*:2]; Bn = c1ccc(C*)cc1; GABA = NCCCC(=O)O

The target in this test is SSTR2 (Homo sapiens, UniProt P30874). In words: SSTR binding affinity by radioligand binding competition assay ([125I]-Tyr11-Somatostatin, membrane extracts).
SSTR2, sequence (P30874 whole entry): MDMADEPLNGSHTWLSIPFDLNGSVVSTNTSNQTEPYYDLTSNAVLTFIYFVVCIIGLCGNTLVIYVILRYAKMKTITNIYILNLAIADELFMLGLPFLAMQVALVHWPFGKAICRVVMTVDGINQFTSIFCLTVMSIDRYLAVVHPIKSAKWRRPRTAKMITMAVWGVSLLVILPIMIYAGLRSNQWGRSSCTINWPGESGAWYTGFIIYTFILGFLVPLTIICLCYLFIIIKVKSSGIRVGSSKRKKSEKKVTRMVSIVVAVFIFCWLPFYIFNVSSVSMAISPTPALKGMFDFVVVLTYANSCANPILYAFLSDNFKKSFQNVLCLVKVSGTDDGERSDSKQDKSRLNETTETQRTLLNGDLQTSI
Setting [1] is: radioligand competition, [125I]-Tyr11-Somatostatin 0.1 nM, membrane extracts; Ki from IC50 by Cheng Prusoff; read-out: SSTR2 Ki.

Turning to `C[C@@H](O)[C@@H]1NC(=O)[C@H](CC2CCNCC2)NC(=O)[C@@H]([C@@H](C)c2c[nH]c3ccccc23)NC(=O)[C@H](Cc2ccc(O)cc2)NC(=O)CN(CCCCCCNC(=O)CN2CCN3CCN4CCN(CC2)CC(=O)[O][Lu]([O]C(=O)C3)[O]C(=O)C4)C(=O)[C@H](Cc2ccccc2)NC1=O` [RB-0006389] (cyclo(F[N(6-aminohexyl)Gly](DOTA(Lu))Y[dTrp(βS-Me)][Ala(piperidin-4-yl)]T)), under setting [1], the Ki was below 1 nM. Still for that read-out and setting: next, `CO[C@H](C)[C@@H]1NC(=O)[C@H](CCCCN)NC(=O)[C@@H](Cc2c[nH]c3ccccc23)NC(=O)[C@H](Cc2ccc(O)cc2)NC(=O)[C@H](CCSCC(=O)NCCCCCCNC(=O)CN2CCN3CCN4CCN(CC2)CC(=O)[O][Lu]([O]C(=O)C3)[O]C(=O)C4)N(C)C(=O)[C@H](Cc2ccccc2)NC1=O` [RB-0004619]: below 1 nM; `C[C@@H](O)[C@@H]1NC(=O)[C@H](CCCCN)NC(=O)[C@@H](Cc2c[nH]c3ccccc23)NC(=O)[C@H](Cc2ccc(O)cc2)NC(=O)[C@H](CCCSCC(=O)NCCOCCNC(=O)CN2CCN3CCN4CCN(CC2)CC(=O)[O][Lu]([O]C(=O)C3)[O]C(=O)C4)N(C)C(=O)[C@H](Cc2ccccc2)NC1=O` [RB-0003486]: below 1 nM; `C[C@@H](O)[C@@H]1NC(=O)[C@H](CCCCN)NC(=O)[C@@H](Cc2c[nH]c3ccccc23)NC(=O)[C@H]([C@@H](C)c2ccccc2)NC(=O)[C@H](CCSCC(=O)NCCCCCCNC(=O)CN2CCN3CCN4CCN(CC2)CC(=O)[O][Lu]([O]C(=O)C3)[O]C(=O)C4)N(C)C(=O)[C@H](Cc2ccccc2)NC1=O` [RB-0003136] (cyclo(F[NMehCys](DOTA(Lu)NH(CH2)6NHCOCH2)[X4][dW]KT)): 1 to 3.33 nM. The same measure, in the same setting: next, `C[C@H](c1ccccc1)[C@@H]1NC(=O)[C@H](CCSCC(=O)NCCCCCCNC(=O)CN2CCN3CCN4CCN(CC2)CC(=O)[O][Lu]([O]C(=O)C3)[O]C(=O)C4)N(C)C(=O)[C@H](Cc2ccccc2)NC(=O)[C@H]([C@@H](C)O)NC(=O)[C@H](CCCCN)NC(=O)[C@@H]([C@@H](C)c2c[nH]c3ccccc23)NC1=O` [RB-0003383] (cyclo(F[NMehCys](DOTA(Lu)NH(CH2)6NHCOCH2)[Phe(3R-Me)][dTrp(βS-Me)]KT)): below 1 nM; `C[C@@H](O)[C@@H]1NC(=O)[C@H](CCCCN)NC(=O)[C@@H](Cc2c[nH]c3ccccc23)NC(=O)[C@H](Cc2ccc(O)cc2)NC(=O)[C@H](CCSCCC(=O)NCCCCCCNC(=O)CN2CCN3CCN4CCN(CC2)CC(=O)[O][Lu]([O]C(=O)C3)[O]C(=O)C4)N(C)C(=O)[C@H](Cc2ccccc2)NC1=O` [RB-0003374]: below 1 nM.

Take `C[C@@H](O)[C@@H]1NC(=O)[C@H](CCCCN)NC(=O)[C@@H](Cc2c[nH]c3ccccc23)NC(=O)[C@H](Cc2ccc(O)cc2)NC(=O)[C@@H](CCSCC(=O)NCCCCCCNC(=O)CN2CCN3CCN4CCN(CC2)CC(=O)[O][Lu]([O]C(=O)C3)[O]C(=O)C4)N(C)C(=O)[C@H](Cc2ccccc2)NC1=O` [RB-0005866]: where the note is “SSTR2 Ki, radioligand competition, [125I]-Tyr11-Somatostatin 0.1 nM, membrane extracts; Ki from IC50 by Cheng Prusoff”, the Ki lay in the range of 1 to 3.33 nM. As for `C[C@@H](O)[C@@H]1NC(=O)[C@H](CC2CCNCC2)NC(=O)[C@@H]([C@@H](C)c2c[nH]c3ccccc23)NC(=O)[C@H](Cc2ccc(O)cc2)NC(=O)[C@H](CCCCNC(=O)C23CCC(CNC(=O)CN4CCN5CCN6CCN(CC4)CC(=O)[O][Lu]([O]C(=O)C5)[O]C(=O)C6)(CC2)CC3)N(C)C(=O)[C@H](Cc2ccccc2)NC1=O` [RB-0006558] (cyclo(F[NMeK](X10)Y[dTrp(βS-Me)][Ala(piperidin-4-yl)]T)), under setting [1], the Ki is below 1 nM. On the same count and under the same terms, next, `C[C@@H](O)[C@@H]1NC(=O)[C@H](CC2CCNCC2)NC(=O)[C@@H]([C@@H](C)c2c[nH]c3ccccc23)NC(=O)[C@H](Cc2ccc(O)cc2)NC(=O)[C@H](CCCCNC(=O)CCCNC(=O)CN2CCN3CCN4CCN(CC2)CC(=O)[O][Lu]([O]C(=O)C3)[O]C(=O)C4)N(C)C(=O)[C@H](Cc2ccccc2)NC1=O` [RB-0006403] (cyclo(F[NMeK]([GABA-DOTA(Lu)])Y[dTrp(βS-Me)][Ala(piperidin-4-yl)]T)): 1 to 3.33 nM. The same measure, in the same setting: the figure for `CC(C)[C@@H]1NC(=O)[C@H](CCCCN)NC(=O)[C@@H]([C@@H](C)c2c[nH]c3ccccc23)NC(=O)[C@H](Cc2ccncc2)NC(=O)[C@H](CCSCC(=O)NCCCCCCNC(=O)CN2CCN3CCN4CCN(CC2)CC(=O)[O][Lu]([O]C(=O)C3)[O]C(=O)C4)N(C)C(=O)[C@H](Cc2ccccc2)NC1=O` [RB-0004825] (cyclo([4Pal][dTrp(βS-Me)]KVF[NMehCys](DOTA(Lu)NH(CH2)6NHCOCH2))) is below 1 nM.

Take `C[C@H](O)[C@@H]1NC(=O)[C@H](CCCCN)NC(=O)[C@@H](Cc2c[nH]c3ccccc23)NC(=O)[C@H](Cc2ccc(O)cc2)NC(=O)[C@H](CCSCC(=O)NCCOCCOCCOCCNC(=O)CN2CCN3CCN4CCN(CC2)CC(=O)[O][Lu]([O]C(=O)C3)[O]C(=O)C4)N(C)C(=O)[C@H](Cc2ccccc2)NC1=O` [RB-0003357]: the Ki under setting [1] is below 1 nM. Still for that read-out and setting: next, `C[C@@H](O)[C@@H]1NC(=O)[C@H](CC2CNC2)NC(=O)[C@@H](Cc2c[nH]c3ccccc23)NC(=O)[C@H](Cc2ccc(O)cc2)NC(=O)[C@H](CCSCC(=O)NCCCCCCNC(=O)CN2CCN3CCN4CCN(CC2)CC(=O)[O][Lu]([O]C(=O)C3)[O]C(=O)C4)N(C)C(=O)[C@H](Cc2ccccc2)NC1=O` [RB-0004866] (cyclo(F[NMehCys](DOTA(Lu)NH(CH2)6NHCOCH2)Y[dW][X25]T)): 10 to 33.3 nM; `C[C@@H](O)[C@@H]1NC(=O)[C@H](CCCCN)NC(=O)[C@@H](Cc2c[nH]c3ccccc23)NC(=O)[C@H](Cc2ccc(O)cc2)NC(=O)[C@H](CCSCC(=O)NCCOCCOCCOCCNC(=O)CN2CCN3CCN4CCN(CC2)CC(=O)[O][Lu]([O]C(=O)C3)[O]C(=O)C4)N(C)C(=O)[C@H](Cc2ccccc2)NC1=O` [RB-0005284]: below 1 nM; `C[C@@H](O)[C@@H]1NC(=O)[C@H](CCCCN)NC(=O)[C@@H](Cc2c[nH]c3ccccc23)NC(=O)[C@H](Cc2ccc(O)cc2)NC(=O)[C@H](CCSCC(=O)NCCCCCCNC(=O)CN2CCN3CCN4CCN(CC2)CC(=O)[O][Lu]([O]C(=O)C3)[O]C(=O)C4)N(C)C(=O)[C@H](Cc2cccnc2)NC1=O` [RB-0003276] (cyclo([3Pal][NMehCys](DOTA(Lu)NH(CH2)6NHCOCH2)Y[dW]KT)): 3.33 to 10 nM.

For the compound `C[C@@H](O)[C@@H]1NC(=O)[C@H](CCCCN)NC(=O)[C@H](Cc2c[nH]c3ccncc23)NC(=O)[C@H](Cc2ccc(O)cc2)NC(=O)[C@H](CCSCC(=O)NCCCCCCNC(=O)CN2CCN3CCN4CCN(CC2)CC(=O)[O][Lu]([O]C(=O)C3)[O]C(=O)C4)N(C)C(=O)[C@H](Cc2ccccc2)NC1=O` [RB-0005903] (cyclo(F[NMehCys](DOTA(Lu)NH(CH2)6NHCOCH2)Y[X19]KT)), the Ki under setting [1] is below 1 nM. Still for that read-out and setting: next, `C[C@@H](O)[C@@H]1NC(=O)[C@H](CC2CCNCC2)NC(=O)[C@@H](Cc2n[nH]c3ccccc23)NC(=O)[C@H](Cc2ccc(O)cc2)NC(=O)[C@H](CCCCNC(=O)CN2CCN3CCN4CCN(CC2)CC(=O)[O][Lu]([O]C(=O)C3)[O]C(=O)C4)N(C)C(=O)[C@H](Cc2ccccc2)NC1=O` [RB-0006553] (cyclo(F[NMeK](DOTA(Lu))Y[X8][Ala(piperidin-4-yl)]T)): 10 to 33.3 nM; `C[C@@H](O)[C@@H]1NC(=O)[C@H](CC2CCNCC2)NC(=O)[C@@H](Cc2c[nH]c3ccccc23)NC(=O)[C@H](Cc2ccc(O)cc2)NC(=O)[C@H](CCCCNC(=O)CN2CCN3CCN4CCN(CC2)CC(=O)[O][Lu]([O]C(=O)C3)[O]C(=O)C4)N(C)C(=O)[C@H](Cc2ccc(O)cc2)NC1=O` [RB-0005983] (cyclo([NMeK](DOTA(Lu))Y[dW][Ala(piperidin-4-yl)]TY)): 3.33 to 10 nM. Same read-out and setting: the figure for `C[C@@H](O)[C@@H]1NC(=O)[C@H](CCCCN)NC(=O)[C@@H](Cc2c[nH]c3ccccc23)NC(=O)[C@H](Cc2ccc(O)cc2)NC(=O)[C@H](CCSCC(=O)NCCCCCCNC(=O)CN2CCN3CCN4CCN(CC2)CC(=O)[O][Lu]([O]C(=O)C3)[O]C(=O)C4)N(C)C(=O)[C@H](c2ccccc2)NC1=O` [RB-0004821] (cyclo(KT[Phg][NMehCys](DOTA(Lu)NH(CH2)6NHCOCH2)Y[dW])) is 1 to 3.33 nM. As for `C[C@@H](c1c[nH]c2ccccc12)[C@H]1NC(=O)[C@@H](c2ccccc2)NC(=O)[C@@H]2C[C@@H](OC(=O)NCCNC(=O)CN3CCN(CC(=O)O)CCN(CC(=O)O)CCN(CC(=O)O)CC3)CN2C(=O)[C@H](Cc2ccccc2)NC(=O)[C@H](Cc2ccc(OCc3ccccc3)cc2)NC(=O)[C@H](CC2CCNCC2)NC1=O` [RB-0006391] (cyclo(F[Hyp]([CO-Ethylenediamine-DOTA])[dPhg][dTrp(βS-Me)][Ala(piperidin-4-yl)]Y(Bn))), the Ki (read-out: SSTR2 Ki; radioligand competition, [125I]-Tyr11-Somatostatin 0.1 nM, membrane extracts; Ki from IC50 by Cheng Prusoff) was 33.3 to 100 nM. Regarding `C[C@@H](O)[C@@H]1NC(=O)[C@H](CCCCN)NC(=O)[C@@H](Cc2c[nH]c3ccccc23)NC(=O)[C@H](Cc2ccncc2)NC(=O)[C@H](CCSCC(=O)NCCCCCCNC(=O)CN2CCN3CCN4CCN(CC2)CC(=O)[O][Lu]([O]C(=O)C3)[O]C(=O)C4)N(C)C(=O)[C@H](Cc2ccncc2)NC1=O` [RB-0003443] (cyclo([4Pal][NMehCys](DOTA(Lu)NH(CH2)6NHCOCH2)[4Pal][dW]KT)), under setting [1], the Ki was 10 to 33.3 nM.

With `C[C@@H](O)[C@@H]1NC(=O)[C@H](CC2CCNCC2)NC(=O)[C@@H]([C@@H](C)c2c[nH]c3ccccc23)NC(=O)[C@H](Cc2ccc(O)cc2)NC(=O)[C@H](CCCCNC(=O)CCC2C(=O)[O][Ga]3[O]C(=O)CN4CCN(CCN2CC4)CC(=O)[O]3)N(C)C(=O)[C@H](Cc2ccccc2)NC1=O` (stereo partly drawn) [RB-0006476], under setting [1], the Ki lay within 3.33 to 10 nM.

For the origin of these results see patent US20250222146A1, “Radiopharmaceuticals Targeting Somatostatin Receptor 2 and Uses Thereof” (RayzeBio, Inc., priority 2023, published 2025).
